Read-outs that look alike come from different tables or passages of the source.
Target: T1, Human CD73 (Homo sapiens, UniProt P21589)
T1 construct: purchased R&D Systems; host or cells: CHO cells
T1 sequence (P21589 27-549): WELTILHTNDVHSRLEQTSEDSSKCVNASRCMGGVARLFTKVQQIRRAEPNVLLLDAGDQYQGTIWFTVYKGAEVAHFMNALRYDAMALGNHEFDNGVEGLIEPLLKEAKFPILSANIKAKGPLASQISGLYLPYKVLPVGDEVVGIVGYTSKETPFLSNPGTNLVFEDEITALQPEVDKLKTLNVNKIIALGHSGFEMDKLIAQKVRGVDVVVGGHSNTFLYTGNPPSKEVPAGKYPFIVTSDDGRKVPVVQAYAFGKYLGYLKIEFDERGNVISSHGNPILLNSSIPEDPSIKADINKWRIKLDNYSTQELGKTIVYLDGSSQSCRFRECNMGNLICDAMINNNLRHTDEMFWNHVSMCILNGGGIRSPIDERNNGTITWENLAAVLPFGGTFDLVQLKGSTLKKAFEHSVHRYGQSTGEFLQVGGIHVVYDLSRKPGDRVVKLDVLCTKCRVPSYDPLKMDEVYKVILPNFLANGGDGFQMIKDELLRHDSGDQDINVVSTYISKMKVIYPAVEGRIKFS
Experiment: CD73 Enzyme Assay
Type: biochemical

[1] = 0.25 nM hCD73, 25 μM AMP, kinetic read at 360 nm, read-out: CD73 Enzyme Assay IC50

Row | SMILES | IC50 [1] [nM] | IC50 [nM]
1 | CC(C)OC(=O)OCOP(=O)(COC[C@H]1O[C@@H](n2ccc3c(NC4CCCC4)nc(Cl)nc32)[C@H](O)[C@@H]1O)OCOC(=O)OC(C)C [Compound 214, [[(2R,3S,4R,5R)-5-[2-chloro-4-(cyclopentyl-amino)pyrrolo[2,3-d]-pyrimidin-7-yl]-3,4-dihydroxy-tetrahydro-furan-2-yl]methoxy-methyl-(isopropoxy-carbonyloxymethoxy)-phosphoryl]oxymethyl-isopropyl carbonate] | > 1000 | 
2 | O=P(COC[C@H]1O[C@@H](n2ccc3c(NC4CCCC4)nc(Cl)nc32)[C@H](O)[C@@H]1O)(Oc1ccccc1)Oc1ccccc1 [Compound 215] |  | > 1000
3 | C[C@@H](Nc1nc(Cl)nc2c1ncn2[C@@H]1O[C@H](COCP(=O)(O)O)[C@@H](O)[C@@]1(C)O)c1ccccc1 [Compound 216, [(2R,3R,4R,5R)-5-[2-chloro-6-[[(1R)-1-phenylethyl]amino]-purin-9-yl]-3,4-dihydroxy-4-methyl-tetrahydrofuran-2-yl]methoxymethyl-phosphonic acid] | > 1000 | 
4 | O=P(O)(O)COC[C@H]1O[C@@H](n2ccc3c(N[C@H](CO)c4ccccc4)nc(Cl)nc32)[C@H](O)[C@@H]1O [Compound 217, [(2R,3S,4R,5R)-5-[2-chloro-4-[[(1S)-2-hydroxy-1-phenyl-ethyl]amino]pyrrolo-[2,3-d]pyrimidin-7-yl]-3,4-dihydroxy-tetrahydrofuran-2-yl]methoxymethyl-phosphonic acid] | 100 to 1000 | 
5 | CCOC(=O)[C@H](C)NP(=O)(COC[C@H]1O[C@@H](n2ccc3c(NC4CCCC4)nc(Cl)nc32)[C@H](O)[C@@H]1O)N[C@@H](C)C(=O)OCC [Compound 220, ethyl (2S)-2-[[[(2R,3S,4R,5R)-5-[2-chloro-4-(cyclo-pentylamino)pyrrolo-[2,3-d]pyrimidin-7-yl]-3,4-dihydroxy-tetra-hydrofuran-2-yl]-methoxymethyl-[[(1S)-2-ethoxy-1-methyl-2-oxo-ethyl]amino]-phosphoryl]amino]-propanoate] | > 1000 | 
6 | CC(C)(C)C(=O)COP(=O)(O)COC[C@H]1O[C@@H](n2ccc3c(NC4CCCC4)nc(Cl)nc32)[C@H](O)[C@@H]1O [Compound 223, [(2R,3S,4R,5R)-5-[2-chloro-4-(cyclopentyl-amino)pyrrolo[2,3-d]-pyrimidin-7-yl]-3,4-dihydroxy-tetrahydro-furan-2-yl]methoxy-methyl-(3,3-dimethyl-2-oxo-butoxy)phos-phinic acid] | > 1000 | 
7 | CC(C)OP(=O)(O)COC[C@H]1O[C@@H](n2ccc3c(NC4CCCC4)nc(Cl)nc32)[C@H](O)[C@@H]1O [Compound 224, [(2R,3S,4R,5R)-5-[2-chloro-4-(cyclopentyl-amino)pyrrolo[2,3-d]-pyrimidin-7-yl]-3,4-dihydroxy-tetrahydro-furan-2-yl]methoxy-methyl-isopropoxy-phosphinic acid] | > 1000 | 
8 | Cc1oc(=O)oc1COP(=O)(O)COC[C@H]1O[C@@H](n2ccc3c(NC4CCCC4)nc(Cl)nc32)[C@H](O)[C@@H]1O [Compound 225, [(2R,3S,4R,5R)-5-[2-chloro-4-(cyclopentyl-amino)pyrrolo[2,3-d]-pyrimidin-7-yl]-3,4-dihydroxy-tetrahydro-furan-2-yl]methoxy-methyl-[(5-methyl-2-oxo-1,3-dioxol-4-yl)-methoxy]phosphinic acid] | 10 to 100 | 
9 | O=P(COC[C@H]1O[C@@H](n2ccc3c(NC4CCCC4)nc(Cl)nc32)[C@H](O)[C@@H]1O)(Oc1ccc(F)cc1)Oc1ccc(F)cc1 [Compound 227, (2R,3S,4R,5R)-2-[bis (4-fluorophenoxy)-phosphorylmethoxy-methyl]-5-[2-chloro-4-(cyclopentylamino)-pyrrolo[2,3-d]-pyrimidin-7-yl]tetra-hydrofuran-3,4-diol] |  | > 1000
10 | O=P(O)(COC[C@H]1O[C@@H](n2ccc3c(NC4CCCC4)nc(Cl)nc32)[C@H](O)[C@@H]1O)Oc1ccc(F)cc1 [Compound 228, [(2R,3S,4R,5R)-5-[2-chloro-4-(cyclopentyl-amino)pyrrolo[2,3-d]-pyrimidin-7-yl]-3,4-dihydroxy-tetrahydro-furan-2-yl]methoxy-methyl-(4-fluoro-phenoxy)phosphinic acid] |  | > 1000
11 | O=P(O)(COC[C@H]1O[C@@H](n2ccc3c(NC4CCCC4)nc(Cl)nc32)[C@H](O)[C@@H]1O)Oc1cccnc1 [Compound 233, [(2R,3S,4R,5R)-5-[2-chloro-4-(cyclopentyl-amino)pyrrolo[2,3-d]-pyrimidin-7-yl]-3,4-dihydroxy-tetrahydro-furan-2-yl]methoxy-methyl-(3-pyridyloxy)-phosphinic acid] |  | < 10

Now from value to compound, other results behind:

Row | IC50 [1] [nM] | SMILES | IC50 [nM]
12 | > 1000 | O=P(COC[C@H]1O[C@@H](n2ccc3c(NC4CCCC4)nc(Cl)nc32)[C@H](O)[C@@H]1O)(OCC(F)(F)F)OCC(F)(F)F [Compound 226, (2R,3S,4R,5R)-2-[bis(2,2,2-trifluoro-ethoxy)phosphoryl-methoxymethyl]-5-[2-chloro-4-(cyclopentyl-amino)pyrrolo[2,3-d]-pyrimidin-7-yl]tetra-hydrofuran-3,4-diol] | 
13 | 100 to 1000 | CN(C)C(=O)COP(=O)(O)COC[C@H]1O[C@@H](n2ccc3c(NC4CCCC4)nc(Cl)nc32)[C@H](O)[C@@H]1O [Compound 234, [(2R,3S,4R,5R)-5-[2-chloro-4-(cyclopentyl-amino)pyrrolo[2,3-d]-pyrimidin-7-yl]-3,4-dihydroxy-tetrahydro-furan-2-yl]methoxy-methyl-[2-(dimethyl-amino)-2-oxo-ethoxy]-phosphinic acid] | 
14 | 10 to 100 | O=C(OCOP(=O)(O)COC[C@H]1O[C@@H](n2ccc3c(NC4CCCC4)nc(Cl)nc32)[C@H](O)[C@@H]1O)N1CCOCC1 [Compound 237, [(2R,3S,4R,5R)-5-[2-chloro-4-(cyclopentyl-amino)pyrrolo[2,3-d]-pyrimidin-7-yl]-3,4-dihydroxy-tetrahydro-furan-2-yl]methoxy-methyl-(morpholine-4-carbonyloxy-methoxy)phosphinic acid] | 
15 | 100 to 1000 | O=C(OCOP(=O)(COC[C@H]1O[C@@H](n2ccc3c(NC4CCCC4)nc(Cl)nc32)[C@H](O)[C@@H]1O)OCOC(=O)N1CCOCC1)N1CCOCC1 [Compound 238, [[(2R,3S,4R,5R)-5-[2-chloro-4-(cyclopentyl-amino)pyrrolo[2,3-d]-pyrimidin-7-yl]-3,4-dihydroxy-tetrahydro-furan-2-yl]methoxy-methyl-(morpholine-4-carbonyloxymeth-oxy)phosphoryl]oxy-methyl morpholine-4-carboxylate] | 
16 | 100 to 1000 | O=P(O)(O)COC[C@H]1O[C@@H](n2ccc3c(N[C@@H]4CCNC4)nc(Cl)nc32)[C@H](O)[C@@H]1O [Compound 241, [(2R,3S,4R,5R)-5-[2-chloro-4-[[(3R)-pyrrolidin-3-yl]amino]-pyrrolo[2,3-d]pyrimidin-7-yl]-3,4-dihydroxy-tetrahydrofuran-2-yl]-methoxymethylphos-phonic acid] | 
17 | > 1000 | O=P(O)(O)COC[C@H]1O[C@@H](n2ccc3c(N[C@H]4CCNC4)nc(Cl)nc32)[C@H](O)[C@@H]1O [Compound 242, [(2R,3S,4R,5R)-5-[2-chloro-4-[[(3S)-pyrrolidin-3-yl]-amino]pyrrolo[2,3-d]-pyrimidin-7-yl]-3,4-dihydroxy-tetrahydro-furan-2-yl]methoxy-methylphosphonic acid] | 

— patent US11591355B2 (Peloton Therapeutics, Inc., priority 2017, dated 2023)
